# Reference: ChEMBL document CHEMBL4725390, “Asymmetrically Substituted Quadruplex-Binding Naphthalene Diimide Showing Potent Activity in Pancreatic Cancer Models” (ACS Med Chem Lett, 2020)
# Active and inactive are the calls of the source. No cut-off for these calls is given here.
# Key:
# MIA PaCa-2 [1] = assay: Downregulation of DNA replication associated gene expression in human MIAPaCa2 cells at 40 nM after 24 hrs by RNA sequencing analysis; assay type: functional, cell-based
# [2] = Downregulation of WNT5B mRNA expression in human MIAPaCa2 cells at 40 nM after 6 hrs by RNA sequencing analysis relative to control; assay type: functional, MIA PaCa-2
# MIA PaCa-2 [3] = assay: Antitumor activity against human MIAPaCa2 cells xenografted in mouse assessed as change in tumor volume at 1 mg/kg, iv administered once per week for 28 days and measured at day 28 by Caliper method relative to control; assay type: functional; details: time 28 day
# [4] = Downregulation of GLI1 mRNA expression in human MIAPaCa2 cells at 40 nM after 6 hrs by RNA sequencing analysis relative to control; assay type: functional, MIA PaCa-2
# [5] = Downregulation of MAPK11 mRNA expression in human MIAPaCa2 cells at 40 nM after 6 hrs by RNA sequencing analysis relative to control; assay type: functional, MIA PaCa-2
# [6] = Downregulation of Bcl2 mRNA expression in human MIAPaCa2 cells at 40 nM after 24 hrs by RNA sequencing analysis relative to control; assay type: functional, MIA PaCa-2
# Quadruplex DNA = assay: Binding affinity to G4 quadruplex DNA in human PANC1 cells assessed as increase in number of BG4 foci at 100 nM after 24 hrs by immunofluorescence based confocal microscopic analysis; assay type: cell-based; details: PANC-1
# MIA PaCa-2 [7] = assay: Downregulation of cell cycle associated gene expression in human MIAPaCa2 cells at 40 nM after 24 hrs by RNA sequencing analysis; assay type: functional, cell-based
# [8] = Half life in mouse xenografted with human MIAPaCa2 cells at 0.96 mg/kg, iv administered as single dose; assay type: ADME, organism-based; details: in vivo
# [9] = Downregulation of WNT5B mRNA expression in human MIAPaCa2 cells at 40 nM after 24 hrs by RNA sequencing analysis relative to control; assay type: functional, MIA PaCa-2
# MIA PaCa-2 [10] = assay: Antiproliferative activity against human MIAPaCa2 cells assessed as growth inhibition after 96 hrs by SRB assay; assay type: functional
# MIA PaCa-2 [11] = assay: Downregulation of Wnt signaling pathway related gene expression in human MIAPaCa2 cells at 40 nM after 6 hrs by RNA sequencing analysis; assay type: functional, cell-based
# [12] = Downregulation of APC2 mRNA expression in human MIAPaCa2 cells at 40 nM after 6 hrs by RNA sequencing analysis relative to control; assay type: functional, MIA PaCa-2
# CAPAN-1 [13] = assay: Antiproliferative activity against human Capan1 cells assessed as growth inhibition after 96 hrs by SRB assay; assay type: functional
# [14] = AUC in mouse xenografted with human MIAPaCa2 cells at 0.96 mg/kg, iv administered as single dose; assay type: ADME, organism-based; design: dose 0.96 mg/kg; details: in vivo
# MIA PaCa-2 [15] = assay: Antitumor activity against human MIAPaCa2 cells xenografted in mouse assessed as change in tumor volume at 1 mg/kg, iv administered once per week for 28 days and measured at day 53 by Caliper method relative to control; assay type: functional; details: time 28 day
# [16] = Downregulation of MAPK11 mRNA expression in human MIAPaCa2 cells at 40 nM after 24 hrs by RNA sequencing analysis relative to control; assay type: functional, MIA PaCa-2
# Mus musculus [17] = assay: Effect on hTERT expression in mouse xenografted with human MIAPaCa2 cells at 1 mg/kg, iv administered twice per week for 28 days and measured on day 28 by Western blot analysis; assay type: functional, organism-based; details: time 28.0 day
# MIA PaCa-2 [18] = assay: Antitumor activity against human MIAPaCa2 cells xenografted in mouse assessed as mean tumor volume at 1 mg/kg, iv administered once per week for 28 days and measured at day 28 by Caliper method (reference value: 0.45 +/- 0.18 cm3); assay type: functional; details: time 28 day
# [19] = Cmax in mouse xenografted with human MIAPaCa2 cells at 0.96 mg/kg, iv administered as single dose; assay type: ADME, organism-based; design: route intravenous, dose 0.96 mg/kg; details: in vivo
# MIA PaCa-2 [20] = assay: Antitumor activity against human MIAPaCa2 cells xenografted in mouse assessed as change in tumor volume at 1 mg/kg, iv administered twice per week for 28 days and measured at day 53 by Caliper method relative to control; assay type: functional; details: time 28 day
# [21] = Downregulation of GLI1 mRNA expression in human MIAPaCa2 cells at 40 nM after 24 hrs by RNA sequencing analysis relative to control; assay type: functional, MIA PaCa-2
# [22] = Toxicity in mouse xenografted with human MIAPaCa2 cells assessed as effect on cardiac clinical signs at 1 mg/kg, iv administered twice per week for 28 days; assay type: organism-based; details: in vivo, 672 h, time 28 day
# PANC-1 = assay: Potency index, ratio of 2,7-bis(3-morpholinopropyl)-4-((2-(pyrrolidin-1-yl)ethyl)amino)benzo[lmn][3,8]phenanthroline-1,3,6,8(2H,7H)-tetraone IC50 to test compound IC50 for human PANC1 cells measured after 96 hrs by SRB assay; assay type: functional
# Mus musculus [23] = assay: Up regulation of cleaved PARP protein expression in mouse xenografted with human MIAPaCa2 cells at 1 mg/kg, iv administered once per week for 28 days measured on day 28 by Western blot analysis; assay type: functional, organism-based; details: time 28.0 day
# CAPAN-1 [24] = assay: Potency index, ratio of 2,7-bis(3-morpholinopropyl)-4-((2-(pyrrolidin-1-yl)ethyl)amino)benzo[lmn][3,8]phenanthroline-1,3,6,8(2H,7H)-tetraone IC50 to test compound IC50 for human Capan1 cells measured after 96 hrs by SRB assay; assay type: functional
# [25] = Downregulation of APC2 mRNA expression in human MIAPaCa2 cells at 40 nM after 24 hrs by RNA sequencing analysis relative to control; assay type: functional, MIA PaCa-2
# MIA PaCa-2 [26] = assay: Antitumor activity against human MIAPaCa2 cells xenografted in mouse assessed as mean tumor volume at 1 mg/kg, iv administered twice per week for 28 days and measured at day 53 by Caliper method (reference value: 1.60 +/- 0.44 cm3); assay type: functional; details: time 28 day
compound,measurement,setting,value
O=C1c2cc(-c3ccc(CN4CCCC4)cc3)c3c4c(cc(NCCN5CCCC5)c(c24)C(=O)N1CCCN1CCOCC1)C(=O)N(CCCN1CCOCC1)C3=O [QN-302],inhibition,MIA PaCa-2 [1],Active
same,log2FC,[2],2.25
same,Activity,MIA PaCa-2 [3],-82.2%
same,log2FC,[4],0.66
same,log2FC,[5],0.71
same,log2FC,[6],1.75
same,Activity,Quadruplex DNA,Active
same,inhibition,MIA PaCa-2 [7],Active
same,half-life,[8],2220 min
same,log2FC,[9],0.57
same,GI50,MIA PaCa-2 [10],1.3 nM
same,inhibition,MIA PaCa-2 [11],Active
same,log2FC,[12],1.88
same,GI50,CAPAN-1 [13],5.9 nM
same,AUC,[14],5860 ng·h/mL
same,Activity,MIA PaCa-2 [15],-89.83%
same,log2FC,[16],1.72
same,Activity,Mus musculus [17],inactive
same,Activity,MIA PaCa-2 [18],0.08 cm3
same,Cmax,[19],4180 ng/mL
same,Activity,MIA PaCa-2 [20],-90.6%
same,log2FC,[21],1.84
same,Activity,[22],Non-Toxic
same,Ratio IC50,PANC-1,10
same,Activity,Mus musculus [23],Active
same,Ratio IC50,CAPAN-1 [24],5
same,log2FC,[25],1.06
same,Activity,MIA PaCa-2 [26],0.15 cm3
